According to EP1183044B1, “ADJUVANT COMBINATIONS FOR IMMUNIZATION AND VACCINES” (priority 1999, dated 2000):
Read-outs that look alike come from different tables or passages of the source.

Test system: M.tuberculosis (Erdman)
Format: in vivo
Conditions: ESAT-6 10 µg/dose three times

| Molecule | Log10 resistance Lung, Experiment I ([…]) | Log10 resistance Spleen, Experiment I ([…]) | Log10 resistance Lung, Experiment I (log10 reduction of bacterial load in lung 6 weeks after aerosol challenge) | Log10 resistance Spleen, Experiment I (log10 reduction of bacterial load in spleen 6 weeks after aerosol challenge) |
| --- | --- | --- | --- | --- |
| CCCCCCCCCCCCCCCCCC[N+](C)(C)CCCCCCCCCCCCCCCCCC.[Br-] [DDA, dimethyl dioctadecyl ammonium bromide] | < 0.05 log10 | <0.05 log10 | – | – |
| monophosphoryl lipid A [MPL] | – | – | < 0.05 log10 | <0.05 log10 |
